“And” between values parts separate entries of the source, which are not always exact repeats. Equal entries are not always repeated. “Also recorded” adds a separate entry of the source.
What was measured:
MRGPRX2 [1] = molecular target: T1, MRGPRX2 (Homo sapiens, UniProt Q96LB1); test: FcεR1/MRGPRX2 dual-stimulation β-hexosaminidase release in freshly isolated human skin mast cells; type: cell-based; parameters: human mast cells expressing endogenous MRGPRX2; endogenous in cells; […]; conditions: Substance P plus anti-IgE (10 μg/mL); n = 3 donors
T1 sequence (Q96LB1 1-330): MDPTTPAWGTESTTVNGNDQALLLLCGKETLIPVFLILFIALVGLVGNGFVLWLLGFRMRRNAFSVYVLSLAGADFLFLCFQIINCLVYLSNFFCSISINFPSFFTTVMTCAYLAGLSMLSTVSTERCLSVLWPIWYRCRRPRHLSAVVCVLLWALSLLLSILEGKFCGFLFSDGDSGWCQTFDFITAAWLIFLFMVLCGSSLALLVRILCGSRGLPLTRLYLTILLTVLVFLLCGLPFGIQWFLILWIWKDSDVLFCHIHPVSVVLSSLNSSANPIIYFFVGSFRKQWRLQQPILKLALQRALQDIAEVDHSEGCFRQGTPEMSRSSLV
Experimental: (§1) Tissue was processed, removing adipose and cutting into small segments. Epidermis was removed after incubation with dispase II (2 mg/mL; Sigma-Aldrich) [100 mL/50-cm^2 tissue, base buffer; Dulbecco’s Phosphate-buffered Saline (D-PBS) (Gibco, supplemented with Ca^2+/Mg^2+), amphotericin B (2.5 μg/mL), penicillin (100 units/mL)/streptomycin (100 μg/mL) (Sigma-Aldrich)] for 37°C for 2–4 h followed by 4°C overnight. The remaining dermis was homogenized into a uniform mass and digested with an enzyme cocktail [collagenase IV (10 mg/mL; Gibco), hyaluronidase I-S (5 mg/mL; Sigma), DNAse I (10 μg/ml; Roche)] in base buffer (supplemented with 10% FBS) in a shaking incubator at 37°C for 90 min. […]
(§2) For human primary skin mast cell degranulation experiments, both β-hexosaminidase and tryptase were measured. […] Plates were centrifuged, with supernatants collected and lysates generated [cell pellets lysed in 0.1% Tx100 (Sigma), in assay buffer], and then stored at −80°C for later quantification. β-Hexosaminidase activity assay was performed as already described. For tryptase quantification: The amount of total tryptase (α and β tryptase) was quantified using the ImmunoCap Tryptase Test ran on either a Phadia 100 or 250 Immunoassay Analyzer as per the manufacturer’s protocol. […]

MRGPRX2 [2] = molecular target: T1, MRGPRX2; test: Substance P-stimulated tryptase release from freshly isolated human skin mast cells; type: cell-based; parameters: human mast cells expressing endogenous MRGPRX2; endogenous in cells; […]; conditions: read-out: pIC50, inhibition of Substance P-stimulated tryptase release (converted)
Experimental: as §1, §2

[3] = tested on: wild-type mice (C57BL6J strain); test: Cpd 48/80-induced itch behavioral study in wild-type mice; type: in vivo, mouse
Experimental: On the day of the experiment, animals were allowed to acclimatize to the test chamber for 10 min prior to injection. Mice received a single PO dose of Compound B (or vehicle) as a suspension in 1% methylcellulose at a dose level of 3 mg/kg (dose volume 10 mL/kg). Scratching behavior was monitored over 30 min following a single intra-dermal injection of 10 μL of Cpd 48/80 (10 μg/mL) or vehicle (saline) at 3 h post-dose of the antagonist. A bout of scratching was defined as a hindpaw directed continuous scratching movement at the injection site. The scratching behavior scorer was blinded to treatment.
Supplemental Figure 3: Oral treatment with the potent and selective human MRGPRX2 […]
type mice. The itch behavioral study for wild-type mice (C57BL6J strain) was performed the same way as descripted in the Methods section as for human MRGPRX2 knock-in mice. Compound 48/80 […]
control (18.4 +/- 3.8, n=7) mice (mean +/- SEM; *P < 0.05, Student's t test). As expected, no effect on the scratching behavior (39.8 +/- 12.6, n=6; P=0.795) was observed by oral administration of Compound B to the Compound 48/80 treated mice. […]

[4] = Blood-free concentration at end of itch observation period; type: in vivo, mouse; conditions: 3 mg/kg PO, average ± SD
Experimental: Figure 6 Oral treatment with the potent and selective MRGPRX2 antagonist, Compound B (3 mg/kg), blocks Cpd 48/80–induced itch response using human MRGPRX2 knock-in mice. […] Average ± SD blood-free concentration of antagonist measured at end of “itch” observation period was 19 ± 16 nM Compound B.
This study provides pharmacological evidence that MRGPRX2 is solely responsible for mediating an SP response in a human tissue, in this instance, skin. Finally, human MRGPRX2 knock-in mice were used to provide initial proof of target engagement of MRGPRX2 antagonists in the skin using an established behavioral scratching model.

With `C[C@@H](C(=O)Nc1cnc(Oc2ccc(F)cc2F)cn1)N1CCC(F)(F)[C@@H](c2cc[n+]([O-])cc2)C1` [Compound B] the “Effect on MRGPRX2-dependent augmentation of FcεR1/MRGPRX2 dual-stimulation β-hexosaminidase release” value (MRGPRX2 [1]) was “selectively inhibits”, the IC50 (MRGPRX2 [2]) was 0.417 nM and the “Effect on Cpd 48/80-induced scratching behavior” value ([3]; 3 mg/kg oral, wild-type mice) was “did not block; also recorded: no effect was observed”. For the same compound, the Scratching counts ([3]; Compound B 3 mg/kg oral in Compound 48/80 treated wild-type mice, mean +/- SEM, n=6) was 39.8 +/- 12.6, the “In vivo PK profile” value (Pharmacokinetic profile) was “good in vivo PK profile” and the Oral bioavailability (Pharmacokinetic profile; in vivo, po) was “good oral bioavailability”. For the same compound, the “Blood-free concentration of antagonist” value [4] was 19 ± 16 nM and 19 nM.

Source: paper PMC11527646, “Pharmacological blockade of the mast cell MRGPRX2 receptor supports investigation of its relevance in skin disorders” (Frontiers in Immunology, 2024)
